Laboratory results as given in the Kinase Knowledgebase extract (Sharma et al. 2016).

target: MAPK14 (human) (UniProt Q16539); assay: Inhibition of MAPK14 Kinase Activity
Sequence (Q16539 whole entry, looked up): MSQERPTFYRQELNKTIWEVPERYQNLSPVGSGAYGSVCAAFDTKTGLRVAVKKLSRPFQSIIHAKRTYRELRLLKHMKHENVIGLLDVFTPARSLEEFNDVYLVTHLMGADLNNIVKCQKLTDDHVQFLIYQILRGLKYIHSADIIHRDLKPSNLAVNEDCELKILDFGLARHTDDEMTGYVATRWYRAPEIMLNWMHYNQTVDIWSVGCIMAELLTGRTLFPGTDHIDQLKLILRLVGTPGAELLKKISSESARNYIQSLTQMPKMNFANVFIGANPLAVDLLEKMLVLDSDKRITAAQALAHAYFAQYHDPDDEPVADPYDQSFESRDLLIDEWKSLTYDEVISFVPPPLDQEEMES

Row | SMILES | IC50 [µM]
1 | O=C(Cc1ccccc1)NC1CC(Cl)C(N2CC(Sc3ccc(F)cc3F)CCC2=O)C(Cl)C1 (configuration not stated) | ≤ 10
2 | O=C1CCC(Sc2cc(F)cc(F)c2)CN1c1c(Cl)cccc1Cl (configuration not stated) | ≤ 10
3 | O=C1CCC(Sc2cccc3ccccc23)CN1C1C(Cl)CCCC1Cl (configuration not stated) | ≤ 10
4 | COc1ccc(OC2CCC(=O)N(c3c(Cl)csc3Cl)C2)cc1 (configuration not stated) | ≤ 10
5 | O=C1CCC(Cc2ccc(F)cc2F)CN1c1c(Cl)ccc(CO)c1Cl (configuration not stated) | ≤ 10
6 | Cc1ccccc1CC1CCC(=O)N(c2c(Cl)cncc2Cl)C1 (configuration not stated) | ≤ 10
7 | Nc1ccc(Cl)c(N2CC(Cc3ccc(F)cc3F)COC2=O)c1Cl (configuration not stated) | ≤ 10
8 | Cc1ccccc1CC1COC(=O)N(c2c(Cl)cccc2Cl)C1 (configuration not stated) | ≤ 10
9 | O=C1CCC(Oc2ccc(Cl)cc2Cl)CN1c1c(Cl)cccc1Cl (configuration not stated) | ≤ 10
10 | O=C1[C@H](O)C[C@@H](Cc2ccc(F)cc2F)CN1c1c(Cl)cccc1Cl | ≤ 10
11 | O=C(CCCCO)Nc1cc(Cl)c(N2CC(Cc3ccc(F)cc3F)CCC2=O)c(Cl)c1 (configuration not stated) | ≤ 10
12 | O=C1CCC(Sc2ccc3ccccc3c2)CN1c1c(Cl)cccc1Cl (configuration not stated) | ≤ 10
13 | Cc1cccc(C)c1N1CC(Cc2ccccc2O)CCC1=O (configuration not stated) | ≤ 10
14 | CN1CC(Cc2ccc(F)cc2F)CN(c2c(Cl)ccc(O)c2Cl)C1=O (configuration not stated) | ≤ 10
15 | Cn1nc(C(C)(C)C)cc1NC(=O)CCc1ccccc1CC1CCC(=O)N(c2c(Cl)cccc2Cl)C1 (configuration not stated) | ≤ 10
16 | COC(=O)/C=C/c1ccccc1CC1CCC(=O)N(c2c(Cl)cccc2Cl)C1 (configuration not stated) | ≤ 10
17 | Cc1cc(/C=C/CCN(C)C)cc(C)c1N1CC(Cc2ccc(F)cc2F)CCC1=O (configuration not stated) | ≤ 10
18 | O=C1CCC(Cc2ccc(Cl)cc2)CN1c1c(Cl)cccc1Cl (configuration not stated) | ≤ 10
19 | Cc1cc(C(=O)N(C)C)cc(C)c1N1CC(Cc2ccc(F)cc2F)CCC1=O (configuration not stated) | ≤ 10
20 | COc1ccc(CC2CNC(=O)N(c3c(Cl)cccc3Cl)C2)cc1 (configuration not stated) | ≤ 10
21 | Nc1cnc(Cl)c(N2CC(Cc3ccc(F)cc3F)CCC2=O)c1Cl (configuration not stated) | ≤ 10
22 | CC(C)(C)OC(=O)N(CCNC(N)=O)c1cc(Cl)c(N2CC(Cc3ccc(F)cc3F)CCC2=O)c(Cl)c1 (configuration not stated) | ≤ 10
23 | O=C1CCC(Sc2ccc(F)cc2F)CN1c1c(Cl)ncc(CO)c1Cl (configuration not stated) | ≤ 10

Row | SMILES | IC50 [µM]
24 | CN(C)CCNC(=O)CNc1cc(Cl)c(N2CC(Cc3ccc(F)cc3F)CCC2=O)c(Cl)c1 (configuration not stated) | ≤ 10
25 | Cc1cc(C#CCCN2CCN(C)CC2)cc(C)c1N1CC(Cc2ccc(F)cc2F)CCC1=O (configuration not stated) | ≤ 10
26 | CCOC(=O)CCCNC(=O)c1cc(C)c(N2CC(Cc3ccc(F)cc3F)CCC2=O)c(C)c1 (configuration not stated) | ≤ 10
27 | CC(=O)Nc1cc(Cl)c(N2CC(Cc3ccc(F)cc3F)SCC2=O)c(Cl)c1 (configuration not stated) | ≤ 10
28 | O=C1CCC(Oc2ccc(F)cc2F)CN1c1c(Cl)cnc(CO)c1Cl (configuration not stated) | ≤ 10
29 | O=C1CCC(Oc2ccc3ccccc3c2)CN1c1c(Cl)cccc1Cl (configuration not stated) | ≤ 10
30 | N[C@@H](CO)C(=O)Nc1cc(Cl)c(N2CC(Cc3ccc(F)cc3F)CCC2=O)c(Cl)c1 (some centres not stated) | ≤ 10
31 | Cc1cc(C(=O)NCCCN(C)C)cc(C)c1N1CC(Cc2ccc(F)cc2F)CCC1=O (configuration not stated) | ≤ 10
32 | C[C@H]1C[C@@H](Cc2ccc(F)cc2F)CN(c2c(Cl)cccc2Cl)C1=O | ≤ 10
33 | O=C1CSC(Cc2ccccc2F)CN1c1c(Cl)cccc1Cl (configuration not stated) | ≤ 10
34 | Cc1ccccc1OC1CCC(=O)N(C2C(Cl)CCCC2Cl)C1 (configuration not stated) | ≤ 10
35 | Nc1ccc(Cl)c(N2CC(Cc3ccc(F)cc3F)CSC2=O)c1Cl (configuration not stated) | ≤ 10
36 | O=C1CCC(Cc2ccc(F)cc2F)CN1c1c(Cl)cc(NCc2ccccc2O)cc1Cl (configuration not stated) | ≤ 10
37 | Nc1cc(Cl)c(N2CC(Cc3ccc(F)cc3F)CCC2=O)c(Cl)n1 (configuration not stated) | ≤ 10
38 | CN1CC(Cc2ccc(F)cc2F)CN(c2c(Cl)cccc2Cl)C1=O (configuration not stated) | ≤ 10
39 | CC(=O)Nc1sc(Cl)c(N2CC(Oc3ccc(F)cc3F)CCC2=O)c1Cl (configuration not stated) | ≤ 10
40 | O=C1CCC(Sc2ccc3ccccc3c2)CN1C1C(Cl)CCCC1Cl (configuration not stated) | ≤ 10
41 | Cc1ccc(CC2CCC(=O)N(C3C(Cl)CCCC3Cl)C2)c(C)c1 (configuration not stated) | ≤ 10
42 | Cc1ccc2ccccc2c1N1CC(Cc2ccc(F)cc2F)CCC1=O (configuration not stated) | ≤ 10
43 | O=C1CCC(Oc2ccc(F)cc2F)CN1C1C(Cl)CCC(CO)C1Cl (configuration not stated) | ≤ 10
44 | Cc1ccc(SC2CCC(=O)N(c3c(Cl)csc3Cl)C2)c(C)c1 (configuration not stated) | ≤ 10
45 | CNc1ncc(Cl)c(N2CC(Oc3ccc(F)cc3F)CCC2=O)c1Cl (configuration not stated) | ≤ 10
46 | Cc1cc(N)cc(C)c1N1CC(Cc2ccc(F)cc2F)CCC1=O (configuration not stated) | ≤ 10

Row | SMILES | IC50 [µM]
47 | Cc1ccc(CC2CSC(=O)N(c3c(Cl)cccc3Cl)C2)c(C)c1 (configuration not stated) | ≤ 10
48 | Nc1cc(Cl)c(N2CC(Cc3ccc(F)cc3F)CCC2=O)c(Cl)c1 (configuration not stated) | ≤ 10
49 | O=C1CCC(Oc2ccccc2F)CN1c1c(Cl)cccc1Cl (configuration not stated) | ≤ 10
50 | N[C@H]1C[C@@H](Cc2ccc(F)cc2F)CN(c2c(Cl)cccc2Cl)C1=O | ≤ 10
51 | CNc1sc(Cl)c(N2CC(Cc3ccc(F)cc3F)CCC2=O)c1Cl (configuration not stated) | ≤ 10
52 | O=C1OCC(Cc2ccccc2F)CN1c1c(Cl)cccc1Cl (configuration not stated) | ≤ 10
53 | O=C1CCC(Oc2ccc(F)cc2)CN1c1c(Cl)csc1Cl (configuration not stated) | ≤ 10
54 | COc1ccccc1SC1CCC(=O)N(c2c(Cl)ccnc2Cl)C1 (configuration not stated) | ≤ 10
55 | CNc1ncc(Cl)c(N2CC(Cc3ccc(F)cc3F)CCC2=O)c1Cl (configuration not stated) | ≤ 10
56 | O=C1CCC(Sc2ccccc2Cl)CN1c1c(Cl)cccc1Cl (configuration not stated) | ≤ 10
57 | O=C1CCC(Sc2ccc(Cl)cc2Cl)CN1c1c(Cl)csc1Cl (configuration not stated) | ≤ 10
58 | O=C1CCC(Sc2ccc(F)cc2F)CN1c1c(Cl)ncc(O)c1Cl (configuration not stated) | ≤ 10
59 | O=C1CCC(Sc2cc(Cl)cc(Cl)c2)CN1c1c(Cl)cccc1Cl (configuration not stated) | ≤ 10
60 | NC1CC(Cl)C(N2CC(Cc3ccc(F)cc3F)CCC2=O)C(Cl)C1 (configuration not stated) | ≤ 10
61 | CC(=O)Nc1ccc(Cl)c(N2CC(Cc3ccc(F)cc3F)COC2=O)c1Cl (configuration not stated) | ≤ 10
62 | O=C1CCC(Sc2ccccc2F)CN1c1c(Cl)cccc1Cl (configuration not stated) | ≤ 10
63 | O=C1CCC(Oc2ccccc2Cl)CN1c1c(Cl)cccc1Cl (configuration not stated) | ≤ 10
64 | Cn1nc(C(C)(C)C)cc1NC(=O)OCc1ccccc1CC1CCC(=O)N(c2c(Cl)cccc2Cl)C1 (configuration not stated) | ≤ 10
65 | O=C1CCC(Sc2ccc3ccccc3c2)CN1c1c(Cl)cncc1Cl (configuration not stated) | ≤ 10
66 | O=C1CCC(Cc2ccccc2)CN1C1C(Cl)CCCC1Cl (configuration not stated) | ≤ 10
67 | Cc1ccc(SC2CCC(=O)N(C3C(Cl)CCCC3Cl)C2)c(C)c1 (configuration not stated) | ≤ 10
68 | CNc1ccc(Cl)c(N2CC(Oc3ccc(F)cc3F)CCC2=O)c1Cl (configuration not stated) | ≤ 10
69 | CC(=O)Nc1sc(Cl)c(N2CC(Sc3ccc(F)cc3F)CCC2=O)c1Cl (configuration not stated) | ≤ 10

Row | SMILES | IC50 [µM]
70 | CNc1sc(Cl)c(N2CC(Sc3ccc(F)cc3F)CCC2=O)c1Cl (configuration not stated) | ≤ 10
71 | CNc1cc(Cl)c(N2CC(Cc3ccc(F)cc3F)CSC2=O)c(Cl)c1 (configuration not stated) | ≤ 10
72 | Nc1sc(Cl)c(N2CC(Cc3ccc(F)cc3F)CCC2=O)c1Cl (configuration not stated) | ≤ 10
73 | O=C1NCC(Cc2ccc(F)cc2F)CN1c1c(Cl)ccc(O)c1Cl (configuration not stated) | ≤ 10
74 | O=C1CCC(Sc2ccc(F)cc2F)CN1c1c(Cl)cc(CO)cc1Cl (configuration not stated) | ≤ 10
75 | Cc1ccc(SC2CCC(=O)N(c3c(Cl)csc3Cl)C2)cc1 (configuration not stated) | ≤ 10
76 | COc1ccccc1SC1CCC(=O)N(c2c(Cl)cncc2Cl)C1 (configuration not stated) | ≤ 10
77 | O=C1CCC(Cc2cccc3ccccc23)CN1c1c(Cl)ccnc1Cl (configuration not stated) | ≤ 10
78 | CC(=O)Nc1ccc(Cl)c(N2CC(Oc3ccc(F)cc3F)CCC2=O)c1Cl (configuration not stated) | ≤ 10
79 | CN1CC(Cc2ccc(F)cc2F)CN(c2c(Cl)cc(CO)cc2Cl)C1=O (configuration not stated) | ≤ 10
80 | Cc1cc(C#CCCO)cc(C)c1N1CC(Cc2ccc(F)cc2F)CCC1=O (configuration not stated) | ≤ 10
81 | CNc1cc(Cl)c(N2CC(Oc3ccc(F)cc3F)CCC2=O)c(Cl)c1 (configuration not stated) | ≤ 10
82 | O=C1CCC(Cc2cc(F)cc(F)c2)CN1c1c(Cl)cccc1Cl (configuration not stated) | ≤ 10
83 | O=C1CCC(Cc2ccc(F)cc2F)CN1C1C(Cl)CCC(CO)C1Cl (configuration not stated) | ≤ 10
84 | O=C1SCC(Cc2ccccc2)CN1c1c(Cl)cccc1Cl (configuration not stated) | ≤ 10
85 | O=C(Cc1ccccc1)Nc1sc(Cl)c(N2CC(Cc3ccc(F)cc3F)CCC2=O)c1Cl (configuration not stated) | ≤ 10
86 | CC(C)(C)OC(=O)Nc1cc(Cl)c(N2CC(Cc3ccccc3F)CCC2=O)c(Cl)c1 (configuration not stated) | ≤ 10
87 | O=C(Cc1ccccc1)Nc1cc(Cl)c(N2CC(Cc3ccc(F)cc3F)SCC2=O)c(Cl)c1 (configuration not stated) | ≤ 10
88 | COc1ccc(CC2CN(c3c(Cl)cccc3Cl)C(=O)CO2)cc1 (configuration not stated) | ≤ 10
89 | CN(C)c1cc(Cl)c(N2CC(Cc3ccc(F)cc3F)CCC2=O)c(Cl)c1 (configuration not stated) | ≤ 10
90 | O=C1CCC(Cc2ccc(F)cc2)CN1C1C(Cl)CCCC1Cl (configuration not stated) | ≤ 10
91 | CN1CC(Cc2cc(Cl)cc(Cl)c2)CN(c2c(Cl)cccc2Cl)C1=O (configuration not stated) | ≤ 10
92 | COC(=O)c1cc(C)c(N2CC(Cc3ccc(F)cc3F)CCC2=O)c(Cl)c1 (configuration not stated) | ≤ 10

Row | SMILES | IC50 [µM]
93 | O=C1CCC(Sc2ccc(F)cc2F)CN1c1c(Cl)csc1Cl (configuration not stated) | ≤ 10
94 | O=C1CCC(Cc2ccc(F)cc2F)CN1c1c(Cl)cc(O)nc1Cl (configuration not stated) | ≤ 10
95 | N#C/C=C/c1cc(Cl)c(N2CC(Cc3ccc(F)cc3F)CCC2=O)c(Cl)c1 (configuration not stated) | ≤ 10
96 | Cc1cc(C)cc(OC2CCC(=O)N(c3c(Cl)cncc3Cl)C2)c1 (configuration not stated) | ≤ 10
97 | CCOC(=O)COc1ccccc1CC1CCC(=O)N(c2c(C)cccc2C)C1 (configuration not stated) | ≤ 10
98 | O=C1CCC(Cc2ccc(F)cc2F)CN1c1nccs1 (configuration not stated) | ≤ 10
99 | CCOC(=O)CCC(=O)Nc1cc(Cl)c(N2CC(Cc3ccc(F)cc3F)CCC2=O)c(Cl)c1 (configuration not stated) | ≤ 10
100 | CC(=O)Nc1sc(Cl)c(N2CC(Cc3ccc(F)cc3F)CCC2=O)c1Cl (configuration not stated) | ≤ 10
101 | O=C1SCC(Cc2cc(F)cc(F)c2)CN1c1c(Cl)cccc1Cl (configuration not stated) | ≤ 10
102 | CNc1cc(Cl)c(N2CC(Cc3ccc(F)cc3F)CNC2=O)c(Cl)c1 (configuration not stated) | ≤ 10
103 | Nc1ccc(Cl)c(N2CC(Sc3ccc(F)cc3F)CCC2=O)c1Cl (configuration not stated) | ≤ 10
104 | COc1ccccc1OC1CCC(=O)N(c2c(Cl)ccnc2Cl)C1 (configuration not stated) | ≤ 10
105 | CC(C)(C)OC(=O)Nc1ccc(N2CC(Cc3ccc(F)cc3F)CCC2=O)c(Cl)c1 (configuration not stated) | ≤ 10
106 | CNc1cc(Cl)c(N2CC(Cc3ccc(F)cc3F)CN(C)C2=O)c(Cl)c1 (configuration not stated) | ≤ 10
107 | Cc1ccccc1CC1CN(c2c(Cl)cccc2Cl)C(=O)CS1 (configuration not stated) | ≤ 10
108 | O=C1CCC(Oc2ccc3ccccc3c2)CN1c1c(Cl)csc1Cl (configuration not stated) | ≤ 10
109 | Cc1ccc(OC2CCC(=O)N(c3c(Cl)ccnc3Cl)C2)c(C)c1 (configuration not stated) | ≤ 10
110 | O=C1SCC(Cc2ccccc2Cl)CN1c1c(Cl)cccc1Cl (configuration not stated) | ≤ 10
111 | Cc1ccc(CC2CN(C)C(=O)N(c3c(Cl)cccc3Cl)C2)c(C)c1 (configuration not stated) | ≤ 10
112 | O=C1CCC(Sc2ccc(F)cc2F)CN1c1c(Cl)cc(O)cc1Cl (configuration not stated) | ≤ 10
